The nature of series [1]: Complex formation of drug with cardiolipin-containing liposomes (centrifugation, spectrophotometry of supernatant). It counts as physicochemical. Conditions: same conditions as doxorubicin, mixed with cardiolipin-containing liposomes. How it is done: Formation of the complex liposome-doxorubicin was evaluated relative to the time of the incubation at 25° C. following the mixing of both components (FIG. 1).
Association capacity of doxorubicin to cardiolipin-liposomes was evaluated for different concentrations of mixture of both components mixed in the same volume (5 ml) after an incubation of 15 min. at 37° C. at a fixed liposome/doxorubicin weight ratio of 11 (Table 1).

In series [2] the test system is LZ cells. Kind of series: Clonogenic assay, cytotoxicity / multidrug resistance reversal in LZ cells. The conditions noted are these: mixed with cardiolipin-containing liposomes. As to the method: Percent survival of treated cells was determined relative to untreated control.

Take `CC[C@]1(O)C[C@H]2CN(CCc3c([nH]c4ccccc34)[C@@](C(=O)OC)(c3cc4c(cc3OC)N(C=O)[C@H]3[C@@](O)(C(=O)OC)[C@H](OC(C)=O)[C@]5(CC)C=CCN6CC[C@]43[C@@H]65)C2)C1` [vincristine]: in series [1], the “association between drug and liposome (in words)” value was “no association between drug and liposome was formed”. For the same molecule, the “increase in drug cytotoxicity (in words)” value in series [2] is recorded as “no increase in drug cytotoxicity was observed”.

These data come from patent US5560923A (Georgetown University, priority 1994, dated 1996).
